Read-outs that look alike come from different tables or passages of the source.
Legend:
[1] = target: full-length ATR (Homo sapiens (Human), UniProt Q13535); assay: ATR Inhibition Assay (radioactive-phosphate incorporation); type: biochemical
Protocol: Compounds were screened for their ability to inhibit ATR kinase using a radioactive-phosphate incorporation assay. Assays were carried out in a mixture of 50 mM Tris/HCl (pH 7.5), 10 mM MgCl2 and 1 mM DTT. Final substrate concentrations were 10 μM [γ-33P]ATP (3 mCi 33P ATP/mmol ATP, Perkin Elmer) and 800 μM target peptide ([…]).
Assays were carried out at 25° C. in the presence of 5 nM full-length ATR. An assay stock buffer solution was prepared containing all of the reagents listed above, with the exception of ATP and the test compound of interest. 13.5 μL of the stock solution was placed in a 96 well plate followed by addition of 2 μL of DMSO stock containing serial dilutions of the test compound (typically starting from a final concentration of 15 μM with 3-fold serial dilutions) in duplicate (final DMSO concentration 7%). The plate was pre-incubated for 10 minutes at 25° C. and the reaction initiated by addition of 15 μL [γ-33P]ATP (final concentration 10 μM).
The reaction was stopped after 24 hours by the addition of 30 μL 0.1 M phosphoric acid containing 2 mM ATP. A multiscreen phosphocellulose filter 96-well plate (Millipore, Cat no. MAPHNOB50) was pretreated with 100 μL 0.2M phosphoric acid prior to the addition of 45 μL of the stopped assay mixture. The plate was washed with 5×200 μL 0.2M phosphoric acid. After drying, 100 μL Optiphase ‘SuperMix’ liquid scintillation cocktail (Perkin Elmer) was added to the well prior to scintillation counting (1450 Microbeta Liquid Scintillation Counter, Wallac).
After removing mean background values for all of the data points, Ki(app) data were calculated from non-linear regression analysis of the initial rate data using the Prism software package (GraphPad Prism version 3.0cx for Macintosh, GraphPad Software, San Diego Calif., USA).
Below is a chart showing the ATR Inhibition Ki values of compounds of the disclosure.

[2] = tested on: HCT116 colorectal cancer cells; assay: Cisplatin Sensitization Assay (96h cell viability MTS); type: cell-based; conditions: concentration of compound required to reduce the IC50 of Cisplatin alone by at least 3-fold, 96h MTS
Protocol: Compounds can be screened for their ability to sensitize HCT116 colorectal cancer cells to Cisplatin using a 96h cell viability (MTS) assay. […] Compounds and Cisplatin are then both added simultaneously to the cell media in 2-fold serial dilutions from a top final concentration of 10 μM as a full matrix of concentrations in a final cell volume of 200 μl, and the cells are then incubated at 37° C. in 5% CO2. After 96h, 40 μl of […] (Promega G358a) is added to each well and the cells are incubated for 1 h at 37° C. in 5% CO2.

[3] = ATR Inhibition Ki(app), 10 μM ATP, 800 μM target peptide, 5 nM full-length ATR, 25° C.

Sequence of full-length ATR (Q13535 whole entry): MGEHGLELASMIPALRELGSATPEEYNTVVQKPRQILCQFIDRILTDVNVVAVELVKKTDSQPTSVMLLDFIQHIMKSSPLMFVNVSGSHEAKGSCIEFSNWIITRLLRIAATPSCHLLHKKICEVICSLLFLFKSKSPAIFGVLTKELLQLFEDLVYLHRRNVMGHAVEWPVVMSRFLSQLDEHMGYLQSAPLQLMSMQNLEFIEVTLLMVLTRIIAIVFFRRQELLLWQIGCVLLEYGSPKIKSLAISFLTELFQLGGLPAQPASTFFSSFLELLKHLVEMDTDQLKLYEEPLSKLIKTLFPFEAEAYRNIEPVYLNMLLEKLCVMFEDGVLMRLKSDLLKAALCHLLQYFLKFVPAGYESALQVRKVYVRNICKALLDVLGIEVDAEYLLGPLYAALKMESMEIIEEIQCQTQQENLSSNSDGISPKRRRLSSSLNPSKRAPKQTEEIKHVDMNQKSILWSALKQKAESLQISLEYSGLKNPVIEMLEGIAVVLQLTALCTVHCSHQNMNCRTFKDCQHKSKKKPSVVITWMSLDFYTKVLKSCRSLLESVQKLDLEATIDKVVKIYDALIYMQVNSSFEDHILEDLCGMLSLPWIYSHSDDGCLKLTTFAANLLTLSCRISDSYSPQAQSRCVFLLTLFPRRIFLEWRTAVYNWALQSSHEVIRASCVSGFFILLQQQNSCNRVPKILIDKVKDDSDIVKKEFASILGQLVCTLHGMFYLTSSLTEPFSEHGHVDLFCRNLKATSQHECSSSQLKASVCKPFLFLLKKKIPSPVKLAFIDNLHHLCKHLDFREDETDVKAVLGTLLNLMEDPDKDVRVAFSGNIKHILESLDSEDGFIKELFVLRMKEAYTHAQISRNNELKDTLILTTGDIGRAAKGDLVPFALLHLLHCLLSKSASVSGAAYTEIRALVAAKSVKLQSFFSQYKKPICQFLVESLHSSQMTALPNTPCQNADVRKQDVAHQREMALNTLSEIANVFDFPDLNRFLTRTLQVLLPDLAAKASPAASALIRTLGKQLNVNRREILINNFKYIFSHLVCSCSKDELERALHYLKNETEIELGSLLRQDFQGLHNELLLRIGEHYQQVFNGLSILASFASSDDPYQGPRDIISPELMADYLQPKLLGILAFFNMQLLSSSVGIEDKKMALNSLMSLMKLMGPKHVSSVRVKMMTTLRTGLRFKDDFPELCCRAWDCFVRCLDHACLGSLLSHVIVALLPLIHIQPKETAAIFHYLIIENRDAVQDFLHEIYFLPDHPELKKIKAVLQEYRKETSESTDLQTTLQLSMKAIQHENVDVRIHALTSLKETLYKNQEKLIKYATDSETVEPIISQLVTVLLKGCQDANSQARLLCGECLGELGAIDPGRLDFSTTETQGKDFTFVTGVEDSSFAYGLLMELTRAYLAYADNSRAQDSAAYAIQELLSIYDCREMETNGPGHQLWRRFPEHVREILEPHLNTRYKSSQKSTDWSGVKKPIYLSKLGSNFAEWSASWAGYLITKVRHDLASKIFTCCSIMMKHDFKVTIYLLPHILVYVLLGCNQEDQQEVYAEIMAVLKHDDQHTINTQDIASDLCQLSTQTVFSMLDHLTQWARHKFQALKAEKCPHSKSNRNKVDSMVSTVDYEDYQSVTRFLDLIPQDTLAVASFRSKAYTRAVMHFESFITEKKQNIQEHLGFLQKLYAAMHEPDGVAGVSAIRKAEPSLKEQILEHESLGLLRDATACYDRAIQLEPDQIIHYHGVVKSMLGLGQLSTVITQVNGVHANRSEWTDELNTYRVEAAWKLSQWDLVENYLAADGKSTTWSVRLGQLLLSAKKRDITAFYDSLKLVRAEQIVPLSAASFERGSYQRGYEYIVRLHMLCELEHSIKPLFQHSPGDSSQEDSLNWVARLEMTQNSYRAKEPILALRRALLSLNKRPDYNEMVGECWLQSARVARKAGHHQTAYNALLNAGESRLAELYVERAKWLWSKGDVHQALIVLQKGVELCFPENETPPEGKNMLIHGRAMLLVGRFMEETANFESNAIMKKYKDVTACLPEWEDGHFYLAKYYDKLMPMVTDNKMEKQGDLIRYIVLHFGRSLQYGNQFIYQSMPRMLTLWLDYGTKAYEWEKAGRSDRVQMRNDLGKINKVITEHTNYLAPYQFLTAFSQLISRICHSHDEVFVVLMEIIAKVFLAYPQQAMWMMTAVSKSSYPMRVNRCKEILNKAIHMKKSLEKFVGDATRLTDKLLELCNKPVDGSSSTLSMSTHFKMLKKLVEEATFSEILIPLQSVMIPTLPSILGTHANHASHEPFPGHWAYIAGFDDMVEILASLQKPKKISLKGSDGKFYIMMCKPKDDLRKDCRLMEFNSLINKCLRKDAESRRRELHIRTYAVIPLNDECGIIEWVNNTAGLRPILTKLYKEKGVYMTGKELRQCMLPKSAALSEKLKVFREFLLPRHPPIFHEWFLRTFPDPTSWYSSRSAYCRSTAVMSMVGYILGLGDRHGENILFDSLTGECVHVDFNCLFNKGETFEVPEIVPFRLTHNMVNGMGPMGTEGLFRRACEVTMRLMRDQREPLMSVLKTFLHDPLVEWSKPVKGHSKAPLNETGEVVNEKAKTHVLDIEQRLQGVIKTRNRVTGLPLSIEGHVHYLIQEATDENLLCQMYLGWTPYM

Row | SMILES | Ki [1, 3] | CP3 shift [2] | Ki [1]
1 | CNCc1ccc(-c2nnc(-c3nc(-c4ccc(=O)n(C(C)C)c4)cnc3N)o2)cc1 [Compound I-3] | 5 to 50 nM | 0.234 µM | 
2 | CNCc1ccc(-c2nnc(-c3nc(-c4ccc(=O)n(C(C)C)c4)cnc3N)o2)c(OC)c1 [Compound I-6] | ≤ 5 nM | 0.156 µM | 
3 | CNCc1ccc(-c2cc(-c3nc(-c4ccc(=O)n(C(C)C)c4)cnc3N)on2)cc1 [Compound I-11] | ≤ 5 nM | 0.156 µM | 
4 | CNCc1ccc(-c2cc(-c3nc(-c4ccc(=O)n(C(C)C#N)c4)cnc3N)on2)cc1 (centres unmarked) [Compound I-15] | ≤ 5 nM | 0.039 µM | 
5 | CNCc1ccc(-c2cc(-c3nc(-c4ccc(=O)n(C5CCC(C)C5)c4)cnc3N)on2)cc1 (centres unmarked) [Compound I-22] | ≤ 5 nM | 0.02 µM | 
6 | CNCc1ccc(-c2nnc(-c3nc(-c4ccc(=O)n(C5CCCC5)c4)cnc3N)o2)c(OC)c1 [Compound I-32] | ≤ 5 nM | 0.079 µM | 
7 | CNCc1ccc(-c2nnc(-c3nc(-c4ccc(=O)n(C(C)C5CC5)c4)cnc3N)o2)c(OC)c1 (centres unmarked) [Compound I-37] | ≤ 5 nM | 0.078 µM | 
8 | CC(N)c1cccc(-c2nnc(-c3nc(-c4ccc(=O)n(C(C)C)c4)cnc3N)o2)c1 (centres unmarked) [Compound I-42] | ≤ 5 nM | 0.156 µM | 
9 | CNCc1cccc(-c2cc(-c3nc(-c4ccc(=O)n(C(C)C)c4)cnc3N)on2)c1 [Compound I-49, 5-(5-amino-6-(3-(3-((methylamino)methyl)phenyl)isoxazol-5-yl)pyrazin-2-yl)-1-isopropylpyridin-2(1H)-one] |  | 0.625 µM | 5 to 50 nM
10 | CC(C)(C)NCc1ccc(-c2cc(-c3nc(-c4ccc(=O)n(C5CCCC5)c4)cnc3N)on2)cc1 [Compound I-50] | ≤ 5 nM | 0.312 µM | 
11 | CNCc1ccc(-c2cc(-c3nc(-c4ccc(=O)n(C(C)C5CC5)c4)cnc3N)on2)c(F)c1 (centres unmarked) [Compound I-54] | ≤ 5 nM | 0.039 µM | 
12 | CC(N)c1cccc(-c2cc(-c3nc(-c4ccc(=O)n(C(C)C)c4)cnc3N)on2)c1 (centres unmarked) [Compound I-55] | ≤ 5 nM | 0.039 µM | 
13 | CC(N)c1cccc(-c2cc(-c3nc(-c4ccc(=O)n(C(C)C5CC5)c4)cnc3N)on2)c1 (centres unmarked) [Compound I-57, 5-(5-amino-6-(3-(3-(1-aminoethyl)phenyl)isoxazol-5-yl)pyrazin-2-yl)-1-(1-cyclopropylethyl)pyridin-2(1H)-one] | ≤ 5 nM | 0.02 µM | 
14 | CC(C)n1cc(-c2cnc(N)c(-c3cc(-c4ccc(CN[C@H]5CCOC5)cc4)no3)n2)ccc1=O [Compound I-58] |  | 0.312 µM | 
15 | CC(C)NCc1ccc(-c2cc(-c3nc(-c4ccc(=O)n(C(C)C)c4)cnc3N)on2)cc1 [Compound I-60] | ≤ 5 nM | 0.312 µM | 
16 | CC(C)n1cc(-c2cnc(N)c(-c3cc(-c4ccc(CNC5CC5)cc4)no3)n2)ccc1=O [Compound I-61] | ≤ 5 nM | 0.078 µM | 
17 | CNCc1ccc(-c2cc(-c3nc(-c4ccc(=O)n(CC5CC5)c4)cnc3N)on2)cc1 [Compound I-62] | ≤ 5 nM | 0.078 µM | 
18 | CCNCc1ccc(-c2cc(-c3nc(-c4ccc(=O)n(C(C)C)c4)cnc3N)on2)cc1 [Compound I-63] | ≤ 5 nM | 0.156 µM | 
19 | CNCc1ccc(-c2cc(-c3nc(-c4ccc(=O)n(C(C)C)c4)cnc3N)on2)c(OC)c1 [Compound I-64] | ≤ 5 nM | 0.078 µM | 
20 | CNCc1ccc(-c2cc(-c3nc(-c4ccc(=O)n(CC5(C)CC5)c4)cnc3N)on2)cc1 [Compound I-68] | ≤ 5 nM | 0.039 µM | 
21 | CNCc1ccc(-c2cc(-c3nc(-c4ccc(=O)n(CC5CC5C)c4)cnc3N)on2)cc1 (centres unmarked) [Compound I-72] | ≤ 5 nM | 0.078 µM | 
22 | CNCc1ccc(-c2cc(-c3nc(-c4ccc(=O)n(CCC#N)c4)cnc3N)on2)cc1 [Compound I-73] | ≤ 5 nM | 0.156 µM | 
23 | CCC(Cn1cc(-c2cnc(N)c(-c3cc(-c4ccc(CNC)cc4)no3)n2)ccc1=O)OC (centres unmarked) [Compound I-74] | ≤ 5 nM | 0.078 µM | 
24 | CC[C@H](C)CCn1cc(-c2cnc(N)c(-c3cc(-c4ccc(CNC)cc4)no3)n2)ccc1=O [Compound I-77] | ≤ 5 nM | 0.039 µM | 
25 | CNCc1ccc(-c2cc(-c3nc(-c4c[nH]c(=O)c(Br)c4)cnc3N)on2)cc1 [Compound I-78] | ≤ 5 nM | 0.625 µM | 

Row | SMILES | Ki [1, 3] | CP3 shift [2] | Ki [1]
26 | CCN(CC)C(=O)C(C)n1cc(-c2cnc(N)c(-c3cc(-c4ccc(CNC)cc4)no3)n2)ccc1=O (centres unmarked) [Compound I-101, 2-(5-(5-amino-6-(3-(4-((methylamino)methyl)phenyl)isoxazol-5-yl)pyrazin-2-yl)-2-oxopyridin-1(2H)-yl)-N,N-diethylpropanamide] |  |  | 5 to 50 nM
27 | CC(N)c1cccc(-c2cc(-c3nc(-c4ccc(=O)[nH]c4)cnc3N)on2)c1 (centres unmarked) [Compound I-103] | ≤ 5 nM |  | 
28 | CC(N)c1cccc(-c2cc(-c3nc(-c4ccc(=O)n(C(C)C(N)=O)c4)cnc3N)on2)c1 (centres unmarked) [Compound I-104] | ≤ 5 nM |  | 
29 | CNCc1ccc(-c2cc(-c3nc(-c4ccc(=O)n(C)c4)cnc3N)on2)cc1 [Compound I-108] | ≤ 5 nM |  | 
30 | CCCn1cc(-c2cnc(N)c(-c3cc(-c4ccc(CNC)cc4)no3)n2)ccc1=O [Compound I-109] | ≤ 5 nM |  | 
31 | Nc1ncc(-c2ccc(=O)[nH]c2)nc1-c1cc(-c2ccc(CNC3CC3)cc2)no1 [Compound I-111, 5-[5-amino-6-[3-[4-[(cyclopropylamino)methyl]phenyl]isoxazol-5-yl]pyrazin-2-yl]-1H-pyridin-2-one] | ≤ 5 nM |  | 
32 | Nc1ncc(-c2c[nH]c(=O)c(Cl)c2)nc1-c1cc(-c2ccc(CNC3CC3)cc2)no1 [Compound I-112] | ≤ 5 nM |  | 
33 | CNCc1ccc(-c2cc(-c3nc(-c4ccc(=O)n(CC5(C)COC5)c4)cnc3N)on2)cc1 [Compound I-113] | ≤ 5 nM |  | 
34 | CNCc1ccc(-c2cc(-c3nc(-c4c[nH]c(=O)c(C5=CCCCC5)c4)cnc3N)on2)cc1 [Compound I-114] | ≤ 5 nM |  | 
35 | CNCc1ccc(-c2cc(-c3nc(-c4c[nH]c(=O)c(C5CCCCC5)c4)cnc3N)on2)cc1 [Compound I-115] | ≤ 5 nM |  | 
36 | CNCc1ccc(-c2cc(-c3nc(-c4ccc(=O)n(C(CO)CO)c4)cnc3N)on2)cc1 [Compound I-117] | ≤ 5 nM |  | 
37 | CNCc1ccc(-c2cc(-c3nc(-c4ccc(=O)n(C(C)C)c4)cnc3N)on2)c(OC(C)C)c1 [Compound I-118] | ≤ 5 nM |  | 
38 | CNCc1ccc(-c2cc(-c3nc(-c4cc(F)c(=O)n(C(C)C)c4)cnc3N)on2)cc1 [Compound I-121] | 5 to 50 nM |  | 
39 | CCC(C#N)(CC)n1cc(-c2cnc(N)c(-c3cc(-c4ccc(CNC5CC5)cc4F)no3)n2)ccc1=O [Compound I-135] |  | 0.01 µM | 
40 | CCC(C#N)(CC)n1cc(-c2cnc(N)c(-c3cc(-c4ccc(CNC5CC5)cc4F)no3)n2)ccc1=O [Compound I-136] | ≤ 5 nM |  | 
41 | CCC(CC)n1cc(-c2cnc(N)c(-c3cc(-c4cccc(C5(N)CC5)c4)no3)n2)ccc1=O [Compound I-137] | 5 to 50 nM |  | 
42 | CCC(CC)n1cc(-c2cnc(N)c(-c3cc(-c4ccc(F)c(C(C)N)c4)no3)n2)ccc1=O (centres unmarked) [Compound I-141] | ≤ 5 nM |  | 
43 | CCC(CC)n1cc(-c2cnc(N)c(-c3cc(-c4cccc(C(C)N)c4F)no3)n2)ccc1=O (centres unmarked) [Compound I-142] | ≤ 5 nM |  | 
44 | CC(C)(C#N)n1cc(-c2cnc(N)c(-c3cc(-c4ccc(CNC5CC5)cc4)no3)n2)ccc1=O [Compound I-144] | ≤ 5 nM |  | 
45 | CCC(CC)n1cc(-c2cnc(N)c(-c3cc(-c4cccc(C(C)(C)N)c4)no3)n2)ccc1=O [Compound I-146] | ≤ 5 nM |  | 
46 | CC(CO)NCc1ccc(-c2cc(-c3nc(-c4ccc(=O)n(C(C)(C)C#N)c4)cnc3N)on2)cc1 (centres unmarked) [Compound I-147] | ≤ 5 nM |  | 
47 | CNCc1ccc(-c2nnc(-c3nc(-c4ccc(=O)[nH]c4)cnc3N)o2)cc1 [Compound I-148] | ≤ 5 nM |  | 
48 | CNCc1ccc(-c2nnc(-c3nc(-c4ccc(=O)n(C(C)C)c4C#N)cnc3N)o2)cc1 [Compound I-149] | 5 to 50 nM |  | 
49 | CNCc1ccc(-c2nnc(-c3nc(-c4ccc(=O)n(C(C)C)c4C)cnc3N)o2)c(C)c1 [Compound I-150] | 50 to 100 nM |  | 
50 | CNCc1ccc(-c2nnc(-c3nc(-c4ccc(=O)n(C(C)C)c4C#N)cnc3N)o2)c(C)c1 [Compound I-151] | 5 to 50 nM |  | 

— US9630956B2, “Compounds useful as inhibitors of ATR kinase” (Vertex Pharmaceuticals Incorporated, priority 2010, dated 2017)
